# Data from US20080039522A1, “Composition Containing a Complex Comprising a Metal Ion and a Carboxylate Ligand Having Anti-Inflammatory Activity” (Medical Therapies Limited, priority 2004, published 2008).
# Tests used:
# [1] = tested on: Sprague-Dawley rats; assay: Acute gastric ulceration after oral administration; type: in vivo, rat; conditions: rat, in vivo
# Method: Gastrointestinal Ulceration: To assess gastric damage, rats (n=4 per group) were fasted overnight with free access to water prior to the oral administration (non-anaesthetized) of the Test Samples or Test Compositions via oral gavage. The controls were dosed with CMC (2%) solution. Three hours after dosing, the rats were euthanised and the stomach was excised and opened by incision along the greater curvature. The stomach was rinsed, submerged in 10% formaldehyde for 1 h and examined to determine the extent of macroscopic gastric damage.
# (§1) The total volume of the MCT or carbopol paste compositions administered per dose in the assessment of gastrointestinal ulceration was no more than 0.5 g.
# In order to illustrate the adverse effects of decomposition of the copper complex in the formulation, the gastric toxicity of IndoH, Cu-acetate, a physical mixture of Cu-acetate and IndoH and [Cu2(Indo)4(DMF)2] were tested at equivalent doses of Indo (10 mg kg^−1) and/or Cu in the MCT paste or a 2% (w/v) aqueous solution of carboxymethylcellulose (CMC). The MCT paste formulations were prepared as described in Example 3 but using IndoH, Cu-acetate, a physical mixture of Cu-acetate and IndoH, or [Cu2(Indo)4(DMF)2] instead of [Cu2(Indo)4(OH2)2]. The gastric toxicity was tested as described above. The results of these experiments are illustrated in FIG. 3.
# In further experiments designed to test the toxicity of solutions of the Cu complex, the [Cu2(Indo)4(DMF)2] complex was dissolved in DMF and gastric toxicities were assessed. […] Similar results would be expected using other complexes, including [Cu2(Indo)4(OH2)2], in a non-colloidal solution.
# [2] = tested on: Sprague-Dawley rats; assay: Anti-inflammatory activity (rat paw oedema) of topical creams; type: in vivo; conditions: topical emulsifying cream
# Method: All rat experiments were performed as outlined in Example 7, except for the following changes. In Vivo Anti-inflammatory Activity and Gastric Toxicity. For topical administration, rats were treated with test compositions containing [Cu2(Indo)4(OH2)2] (“CuIndo”), [Zn(Indo)2(OH2)2] (“ZnIndo”), IndoH, or an equivalent Indo and Cu dose of a physical mixture of [Cu2(OAc)4(OH2)2] and IndoH thoroughly mixed in an emulsifying cream (see below). An amount of 0.2 g of the composition was applied to the right hind paw of each animal and gently massaged in for 1 minute at three-hourly intervals. Inflammation was induced at the final topical application with an injection of carrageenan (0.1 mL, 1% w/v in isotonic saline) into the plantar region of the hind paw. The composition for topical application was a composition comprising 0.5-2% w/w of Indo delivered as [Cu2(Indo)4(OH2)2] (“CuIndo”), [Zn(Indo)2(OH2)2] (“ZuIndo”), IndoH or an equivalent Indo and Cu dose of a physical mixture of [Cu2(OAc)4(OH2)2] and IndoH in an emulsifying cream, the emulsifying cream consisting of: […]
# [3] = tested on: Sprague-Dawley rats; assay: Small intestine ulceration after oral administration; type: in vivo, rat; conditions: rats fed, oral gavage, 24 h after dosing; IndoH 10 mg kg^−1, complexes 11 mg kg^−1; mean ± sem; listed as Sample F
# Method: The rats were orally administered (non-anaesthetized) the Test Samples or Test Compositions via oral gavage. The controls were dosed with CMC (2%) solution.
# as §1
structure (smiles),measurement,setting,value
COc1ccc2c(c1)c(CC(=O)[O-])c(C)n2C(=O)c1ccc(Cl)cc1.COc1ccc2c(c1)c(CC(=O)[O-])c(C)n2C(=O)c1ccc(Cl)cc1.COc1ccc2c(c1)c(CC(=O)[O-])c(C)n2C(=O)c1ccc(Cl)cc1.COc1ccc2c(c1)c(CC(=O)[O-])c(C)n2C(=O)c1ccc(Cl)cc1.O.O.[Cu+2].[Cu+2] [[Cu2(Indo)4(OH2)2]],gastric toxicity as % of that of an equivalent dose of IndoH,[1],approximately 8%
same,reduction of gastric toxicity versus free IndoH,[1],50%
same,Efficacy (% inhib),[2]; conc. 0.5 % equiv of Indo,12.2 % inhib
same,Efficacy (% inhib),[2]; conc. 0.75 % equiv of Indo,73 % inhib
same,Efficacy (% inhib),[2]; conc. 1 % equiv of Indo,52 % inhib
same,Efficacy (% inhib),[2]; conc. 2 % equiv of Indo,55.2 % inhib
same,Small intestine ulceration (mm^2),[3],61.0±34.5 mm^2
